Data on 6 compounds can be found in patent US9150580B2, “Substituted imidazopyridines and the use thereof” (BAYER INTELLECTUAL PROPERTY GMBH, priority 2011, dated 2015).

Counter-ions that a name gives are not always drawn.

One assay relates to aorta rings. Description: Vasorelaxant action in vitro (phenylephrine-contracted rabbit aorta rings). The following applies: Oryctolagus cuniculus, phenylephrine-induced contraction, organ bath 37° C., 0.1% DMSO, read-out: IC50 (concentration needed to reduce the magnitude of the control contraction by 50%). On the procedure: B-1. Vasorelaxant Action In Vitro
Rabbits are stunned by a blow to the neck and exsanguinated. The aorta is removed, freed from adhering tissue and divided into rings of a width of 1.5 mm. The rings are placed individually under an initial tension in 5 ml organ baths with Krebs-Henseleit solution which is at 37° C., is gassed with carbogen and has the following composition (in each case mM): sodium chloride 119; potassium chloride: 4.8; calcium chloride dihydrate: 1; magnesium sulfate heptahydrate: 1.4; potassium dihydrogenphosphate: 1.2; sodium bicarbonate: 25; glucose: 10. The contractile force is determined with Statham UC2 cells, amplified and digitalized using A/D transducers (DAS 1802 HC, Keithley Instruments Munich), and recorded in parallel on linear recorders. To obtain a contraction, phenylephrine is added to the bath cumulatively in increasing concentration. After several control cycles, the substance to be investigated is added in each further run in increasing dosage in each case, and the height of the contraction achieved is compared with the height of the contraction reached in the last preceding run. This is used to calculate the concentration needed to reduce the magnitude of the control value by 50% (IC50 value). The standard administration volume is 5 μl; the DMSO content in the bath solution corresponds to 0.1%.

The target in assay [1] is T1, recombinant guanylate cyclase reporter cell line (Rattus norvegicus, UniProt P19686+P20595).
T1 construct: expressed in transfected cells
T1 sequence (P19686 1-690): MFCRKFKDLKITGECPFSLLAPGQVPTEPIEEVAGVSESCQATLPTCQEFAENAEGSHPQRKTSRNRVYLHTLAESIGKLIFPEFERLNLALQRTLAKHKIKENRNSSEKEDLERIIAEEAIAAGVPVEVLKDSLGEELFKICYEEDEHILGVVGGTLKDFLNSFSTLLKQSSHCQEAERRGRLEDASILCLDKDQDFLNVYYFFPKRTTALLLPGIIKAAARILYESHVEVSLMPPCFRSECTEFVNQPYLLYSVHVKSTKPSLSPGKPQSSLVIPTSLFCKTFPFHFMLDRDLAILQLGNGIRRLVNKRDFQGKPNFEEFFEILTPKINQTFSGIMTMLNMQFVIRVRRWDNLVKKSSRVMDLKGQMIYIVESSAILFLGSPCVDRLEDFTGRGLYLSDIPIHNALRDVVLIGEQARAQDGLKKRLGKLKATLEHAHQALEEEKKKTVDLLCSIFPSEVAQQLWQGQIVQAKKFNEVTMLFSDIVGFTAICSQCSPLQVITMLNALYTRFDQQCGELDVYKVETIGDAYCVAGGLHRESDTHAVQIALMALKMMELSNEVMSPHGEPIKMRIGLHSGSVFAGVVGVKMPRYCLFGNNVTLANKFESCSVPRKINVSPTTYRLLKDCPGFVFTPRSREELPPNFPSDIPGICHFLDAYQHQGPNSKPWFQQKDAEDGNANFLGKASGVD
T1 sequence (P20595 1-619): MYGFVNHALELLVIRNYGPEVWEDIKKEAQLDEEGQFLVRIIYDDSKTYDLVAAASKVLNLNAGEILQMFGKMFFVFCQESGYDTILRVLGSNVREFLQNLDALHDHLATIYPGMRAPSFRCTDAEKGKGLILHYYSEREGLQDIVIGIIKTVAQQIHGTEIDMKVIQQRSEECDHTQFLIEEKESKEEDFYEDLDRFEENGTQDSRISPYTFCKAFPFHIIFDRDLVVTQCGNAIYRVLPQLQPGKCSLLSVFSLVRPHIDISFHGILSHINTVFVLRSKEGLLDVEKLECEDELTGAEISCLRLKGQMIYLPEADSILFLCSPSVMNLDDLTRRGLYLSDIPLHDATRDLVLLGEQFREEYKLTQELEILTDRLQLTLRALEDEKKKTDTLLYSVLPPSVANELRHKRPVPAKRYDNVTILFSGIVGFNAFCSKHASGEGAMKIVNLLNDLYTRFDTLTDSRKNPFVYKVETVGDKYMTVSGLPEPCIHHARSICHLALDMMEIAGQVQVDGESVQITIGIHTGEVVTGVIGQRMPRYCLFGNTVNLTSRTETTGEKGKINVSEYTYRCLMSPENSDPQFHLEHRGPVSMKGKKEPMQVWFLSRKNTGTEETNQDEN
Nature of the assay: Effect on a recombinant guanylate cyclase reporter cell line. The class given is cell-based. The following applies: recombinant guanylate cyclase reporter cell line (Wunder et al. 2005). As for the experimental part: B-2. Effect on a Recombinant Guanylate Cyclase Reporter Cell Line
The cellular activity of the compounds according to the invention is determined using a recombinant guanylate cyclase reporter cell line, as described in F. Wunder et al., Anal. Biochem. 339, 104-112 (2005).

Consider `Nc1nc(N)nc(-c2nc(Cc3ccccc3F)n3ncccc23)n1` [Example 1, 6-[7-(2-Fluorobenzyl)imidazo[1,5-b]pyridazin-5-yl]-1,3,5-triazine-2,4-diamine formate], for which the IC50 in the assay on aorta rings came out at 130 nM. In addition, the “MEC (minimum effective concentration)” value in assay [1] amounted to 0.03 µM.

Take `CCOC(=O)Nc1c(N)nc(-c2nc(Cc3ccccc3F)n3ncccc23)nc1N` [Example 5, Ethyl {4,6-diamino-2-[7-(2-fluorobenzyl)imidazo[1,5-b]pyridazin-5-yl]pyrimidin-5-yl}carbamate formate]: the IC50 in the assay on aorta rings came out at 200 nM. Besides, in assay [1], the “MEC (minimum effective concentration)” value was determined as 0.3 µM.

In the case of `CCN(C(=O)OC)c1c(N)nc(-c2nc(Cc3ccccc3F)n3ncccc23)nc1N` [Example 8, Methyl {4,6-diamino-2-[7-(2-fluorobenzyl)imidazo[1,5-b]pyridazin-5-yl]pyrimidin-5-yl}ethylcarbamate formate], the IC50 in the assay on aorta rings turned out to be 152 nM. For the same compound, in assay [1], the “MEC (minimum effective concentration)” value came to 0.1 µM.

`Nc1nc(-c2nc(Cc3ccccc3F)n3ncccc23)nc(N)c1NC(=O)OC1CCC1` [Example 11, Cyclobutyl {4,6-diamino-2-[7-(2-fluorobenzyl)imidazo[1,5-b]pyridazin-5-yl]pyrimidin-5-yl}carbamate formate]: in the assay on aorta rings, the IC50 was determined as 422 nM. For the same compound, the “MEC (minimum effective concentration)” value in assay [1] amounted to 0.3 µM.

With `COC(=O)N(Cc1ccccc1)c1c(N)nc(-c2nc(Cc3ccccc3F)n3ncccc23)nc1N` [Example 15, Methyl benzyl{4,6-diamino-2-[7-(2-fluorobenzyl)imidazo[1,5-b]pyridazin-5-yl]pyrimidin-5-yl}carbamate formate], the IC50 in the assay with aorta rings was found to be 171 nM. The “MEC (minimum effective concentration)” value in assay [1] amounted to 0.01 µM.

In the case of `COC(=O)N(Cc1cccc(F)c1)c1c(N)nc(-c2nc(Cc3ccccc3F)n3ncccc23)nc1N` [Example 19, Methyl {4,6-diamino-2-[7-(2-fluorobenzyl)imidazo[1,5-b]pyridazin-5-yl]pyrimidin-5-yl}(3-fluorobenzyl)carbamate formate], the IC50 in the assay with aorta rings was 81 nM. The “MEC (minimum effective concentration)” value in assay [1] was found to be 0.1 µM.
